Test results reported in ChEMBL document CHEMBL3112480, “γ-Alkylidene-γ-lactones and isobutylpyrrol-2(5H)-ones analogues to rubrolides as inhibitors of biofilm formation by gram-positive and gram-negative bacteria” (Bioorg Med Chem Lett, 2014).
In brackets after ≈: the same amount, converted by molar mass. Values belong to the compound of their own block, whether it stands above or below them.

Assays:
Pseudomonas aeruginosa [1] = test: Antibacterial activity against Pseudomonas aeruginosa ATCC 27853 assessed as inhibition of biofilm formation after 20 hrs by crystal-violet staining method; type: functional, organism-based
[2] = system: Staphylococcus epidermidis; test: Antibacterial activity against Staphylococcus epidermidis ATCC 35547 assessed as effect on planktonic growth at 0.68 ug/ml after 20 hrs relative to control; type: functional
Staphylococcus aureus [3] = test: Antibacterial activity against Staphylococcus aureus ATCC 25923 assessed as effect on planktonic growth at 1.37 ug/ml after 20 hrs relative to control; type: functional
Staphylococcus aureus [4] = test: Antibacterial activity against Staphylococcus aureus ATCC 25923 assessed as effect on planktonic growth at 10.9 ug/ml after 20 hrs relative to control; type: functional
Pseudomonas aeruginosa [5] = test: Antibacterial activity against Pseudomonas aeruginosa ATCC 27853 assessed as effect on planktonic growth at 0.17 ug/ml after 20 hrs relative to control; type: functional
[6] = system: Staphylococcus epidermidis; test: Antibacterial activity against Staphylococcus epidermidis ATCC 35547 assessed as effect on planktonic growth at 87.5 ug/ml after 20 hrs relative to control; type: functional
Staphylococcus aureus [7] = test: Antibacterial activity against Staphylococcus aureus ATCC 25923 assessed as effect on planktonic growth at 0.34 ug/ml after 20 hrs relative to control; type: functional
Streptococcus mutans [8] = test: Antibacterial activity against Streptococcus mutans ATCC 25175 assessed as effect on planktonic growth at 43.8 ug/ml after 20 hrs relative to control; type: functional
Pseudomonas aeruginosa [9] = test: Antibacterial activity against Pseudomonas aeruginosa ATCC 27853 assessed as effect on planktonic growth at 43.8 ug/ml after 20 hrs relative to control; type: functional
Pseudomonas aeruginosa [10] = test: Antibacterial activity against Pseudomonas aeruginosa ATCC 27853 assessed as effect on planktonic growth at 87.5 ug/ml after 20 hrs relative to control; type: functional
Pseudomonas aeruginosa [11] = test: Antibacterial activity against Pseudomonas aeruginosa ATCC 27853 assessed as effect on planktonic growth at 2.73 ug/ml after 20 hrs relative to control; type: functional
Streptococcus mutans [12] = test: Antibacterial activity against Streptococcus mutans ATCC 25175 assessed as effect on planktonic growth at 5.5 ug/ml after 20 hrs relative to control; type: functional
Pseudomonas aeruginosa [13] = test: Antibacterial activity against Pseudomonas aeruginosa ATCC 27853 assessed as effect on planktonic growth at 0.34 ug/ml after 20 hrs relative to control; type: functional
Staphylococcus aureus [14] = test: Antibacterial activity against Staphylococcus aureus ATCC 25923 assessed as effect on planktonic growth at 2.73 ug/ml after 20 hrs relative to control; type: functional
Staphylococcus aureus [15] = test: Antibacterial activity against Staphylococcus aureus ATCC 25923 assessed as effect on planktonic growth at 5.5 ug/ml after 20 hrs relative to control; type: functional
[16] = system: Staphylococcus epidermidis; test: Antibacterial activity against Staphylococcus epidermidis ATCC 35547 assessed as effect on planktonic growth at 1.37 ug/ml after 20 hrs relative to control; type: functional
Streptococcus mutans [17] = test: Antibacterial activity against Streptococcus mutans ATCC 25175 assessed as effect on planktonic growth at 21.9 ug/ml after 20 hrs relative to control; type: functional
[18] = system: Staphylococcus epidermidis; test: Antibacterial activity against Staphylococcus epidermidis ATCC 35547 assessed as effect on planktonic growth at 10.9 ug/ml after 20 hrs relative to control; type: functional
[19] = system: Staphylococcus epidermidis; test: Antibacterial activity against Staphylococcus epidermidis ATCC 35547 assessed as effect on planktonic growth at 2.73 ug/ml after 20 hrs relative to control; type: functional
Streptococcus mutans [20] = test: Antibacterial activity against Streptococcus mutans ATCC 25175 assessed as effect on planktonic growth at 0.34 ug/ml after 20 hrs relative to control; type: functional
[21] = system: Staphylococcus epidermidis; test: Antibacterial activity against Staphylococcus epidermidis ATCC 35547 assessed as inhibition of biofilm formation after 20 hrs by crystal-violet staining method; type: functional, organism-based; conditions: for IC50: ATCC 35547, 20 h
Streptococcus mutans [22] = test: Antibacterial activity against Streptococcus mutans ATCC 25175 assessed as effect on planktonic growth at 1.37 ug/ml after 20 hrs relative to control; type: functional
Streptococcus mutans [23] = test: Antibacterial activity against Streptococcus mutans ATCC 25175 assessed as effect on planktonic growth at 0.17 ug/ml after 20 hrs relative to control; type: functional
Staphylococcus aureus [24] = test: Antibacterial activity against Staphylococcus aureus ATCC 25923 assessed as effect on planktonic growth at 87.5 ug/ml after 20 hrs relative to control; type: functional
[25] = system: Staphylococcus epidermidis; test: Antibacterial activity against Staphylococcus epidermidis ATCC 35547 assessed as effect on planktonic growth at 21.9 ug/ml after 20 hrs relative to control; type: functional
[26] = system: Staphylococcus epidermidis; test: Antibacterial activity against Staphylococcus epidermidis ATCC 35547 assessed as effect on planktonic growth at 5.5 ug/ml after 20 hrs relative to control; type: functional
Staphylococcus aureus [27] = test: Antibacterial activity against Staphylococcus aureus ATCC 25923 assessed as effect on planktonic growth at 43.8 ug/ml after 20 hrs relative to control; type: functional
Pseudomonas aeruginosa [28] = test: Antibacterial activity against Pseudomonas aeruginosa ATCC 27853 assessed as effect on planktonic growth at 0.68 ug/ml after 20 hrs relative to control; type: functional
Streptococcus mutans [29] = test: Antibacterial activity against Streptococcus mutans ATCC 25175 assessed as effect on planktonic growth at 10.9 ug/ml after 20 hrs relative to control; type: functional
[30] = system: Staphylococcus epidermidis; test: Antibacterial activity against Staphylococcus epidermidis ATCC 35547 assessed as effect on planktonic growth at 43.8 ug/ml after 20 hrs relative to control; type: functional
Staphylococcus aureus [31] = test: Antibacterial activity against Staphylococcus aureus ATCC 25923 assessed as effect on planktonic growth at 0.17 ug/ml after 20 hrs relative to control; type: functional
[32] = system: Staphylococcus epidermidis; test: Antibacterial activity against Staphylococcus epidermidis ATCC 35547 assessed as effect on planktonic growth at 0.17 ug/ml after 20 hrs relative to control; type: functional
Pseudomonas aeruginosa [33] = test: Antibacterial activity against Pseudomonas aeruginosa ATCC 27853 assessed as effect on planktonic growth at 1.37 ug/ml after 20 hrs relative to control; type: functional
Pseudomonas aeruginosa [34] = test: Antibacterial activity against Pseudomonas aeruginosa ATCC 27853 assessed as effect on planktonic growth at 5.5 ug/ml after 20 hrs relative to control; type: functional
[35] = system: Staphylococcus epidermidis; test: Antibacterial activity against Staphylococcus epidermidis ATCC 35547 assessed as effect on planktonic growth at 0.34 ug/ml after 20 hrs relative to control; type: functional
Staphylococcus aureus [36] = test: Antibacterial activity against Staphylococcus aureus ATCC 25923 assessed as effect on planktonic growth at 0.68 ug/ml after 20 hrs relative to control; type: functional
Streptococcus mutans [37] = test: Antibacterial activity against Streptococcus mutans ATCC 25175 assessed as effect on planktonic growth at 2.73 ug/ml after 20 hrs relative to control; type: functional
Staphylococcus aureus [38] = test: Antibacterial activity against Staphylococcus aureus ATCC 25923 assessed as effect on planktonic growth at 21.9 ug/ml after 20 hrs relative to control; type: functional
Streptococcus mutans [39] = test: Antibacterial activity against Streptococcus mutans ATCC 25175 assessed as effect on planktonic growth at 0.68 ug/ml after 20 hrs relative to control; type: functional
Pseudomonas aeruginosa [40] = test: Antibacterial activity against Pseudomonas aeruginosa ATCC 27853 assessed as effect on planktonic growth at 10.9 ug/ml after 20 hrs relative to control; type: functional
Pseudomonas aeruginosa [41] = test: Antibacterial activity against Pseudomonas aeruginosa ATCC 27853 assessed as effect on planktonic growth at 21.9 ug/ml after 20 hrs relative to control; type: functional
Streptococcus mutans [42] = test: Antibacterial activity against Streptococcus mutans ATCC 25175 assessed as effect on planktonic growth at 87.5 ug/ml after 20 hrs relative to control; type: functional

IC50 (Pseudomonas aeruginosa [1]; ATCC 27853, 20 h): 1.7 µg/mL (≈ 4.03 µM)
IC50 [21]: > 87.5 µg/mL
SMILES: COc1cccc(/C=C2\OC(=O)C(Br)=C2c2cc(Cl)ccc2OC)c1
inhibition (Pseudomonas aeruginosa [1]): Dose-dependent effect
Activity [2]: -1.5%
Activity (Staphylococcus aureus [3]): 52.1%
Activity (Staphylococcus aureus [4]): 43.1%
Activity (Pseudomonas aeruginosa [5]): -1.2%
Activity [6]: 10.6%
Activity (Staphylococcus aureus [7]): 30.5%
Activity (Streptococcus mutans [8]): 22.7%
Activity (Pseudomonas aeruginosa [9]): -8.7%
Activity (Pseudomonas aeruginosa [10]): -9.5%
Activity (Pseudomonas aeruginosa [11]): -16%
Activity (Streptococcus mutans [12]): 19.7%
Activity (Pseudomonas aeruginosa [13]): 0.5%
Activity (Staphylococcus aureus [14]): 39.5%
Activity (Staphylococcus aureus [15]): 34.4%
Activity [16]: -4.7%
Activity (Streptococcus mutans [17]): 14%
Activity [18]: -5.5%
Activity [19]: -2.4%
Activity (Streptococcus mutans [20]): 25.7%
inhibition [21]: Dose-dependent effect
Activity (Streptococcus mutans [22]): 34.3%
Activity (Streptococcus mutans [23]): 26.9%
Activity (Staphylococcus aureus [24]): 134.6%
Activity [25]: -1.3%
Activity [26]: -4.6%
Activity (Staphylococcus aureus [27]): 80.5%
Activity (Pseudomonas aeruginosa [28]): 0.7%
Activity (Streptococcus mutans [29]): 18.8%
Activity [30]: 5.6%
Activity (Staphylococcus aureus [31]): 10.3%
Activity [32]: 3.7%
Activity (Pseudomonas aeruginosa [33]): -7.3%
Activity (Pseudomonas aeruginosa [34]): -19.4%
Activity [35]: 0.1%
Activity (Staphylococcus aureus [36]): 47.2%
Activity (Streptococcus mutans [37]): 37.3%
Activity (Staphylococcus aureus [38]): 47.2%
Activity (Streptococcus mutans [39]): 23.9%
Activity (Pseudomonas aeruginosa [40]): -14.8%
Activity (Pseudomonas aeruginosa [41]): -11.6%
Activity (Streptococcus mutans [42]): 49%

IC50 [21]: > 87.5 µg/mL
SMILES: COc1ccc(Br)cc1C1=C(Br)C(=O)N(CC(C)C)C1(O)Cc1cccc(Cl)c1 (configuration not stated)
inhibition (Pseudomonas aeruginosa [1]): Dose-dependent effect
Activity [2]: 23.2%
Activity (Staphylococcus aureus [3]): -2%
Activity (Staphylococcus aureus [4]): 4.2%
Activity (Pseudomonas aeruginosa [5]): -7.3%
Activity [6]: 38.2%
Activity (Staphylococcus aureus [7]): 6.1%
Activity (Streptococcus mutans [8]): 16.9%
Activity (Pseudomonas aeruginosa [9]): 4.3%
Activity (Pseudomonas aeruginosa [10]): 3.3%
Activity (Pseudomonas aeruginosa [11]): 0.1%
Activity (Streptococcus mutans [12]): 9.6%
Activity (Pseudomonas aeruginosa [13]): -5.4%
Activity (Staphylococcus aureus [14]): 0.6%
Activity (Staphylococcus aureus [15]): 16.6%
Activity [16]: 22.8%
Activity (Streptococcus mutans [17]): 15.4%
Activity [18]: 25.8%
Activity [19]: 20.9%
Activity (Streptococcus mutans [20]): 5.5%
inhibition [21]: Dose-dependent effect
Activity (Streptococcus mutans [22]): 12.1%
Activity (Streptococcus mutans [23]): 1.1%
Activity (Staphylococcus aureus [24]): 35.1%
Activity [25]: 30.2%
Activity [26]: 24.3%
Activity (Staphylococcus aureus [27]): 30.3%
Activity (Pseudomonas aeruginosa [28]): -9%
Activity (Streptococcus mutans [29]): 6.6%
Activity [30]: 35.9%
Activity (Staphylococcus aureus [31]): -4.6%
Activity [32]: 17.5%
Activity (Pseudomonas aeruginosa [33]): -6.6%
Activity (Pseudomonas aeruginosa [34]): -3.1%
Activity [35]: 34.1%
Activity (Staphylococcus aureus [36]): 3.1%
Activity (Streptococcus mutans [37]): 7%
Activity (Staphylococcus aureus [38]): 23.8%
Activity (Streptococcus mutans [39]): 10.3%
Activity (Pseudomonas aeruginosa [40]): 3.2%
Activity (Pseudomonas aeruginosa [41]): 1.4%
Activity (Streptococcus mutans [42]): 26.1%
